Laboratory results published in a melting point compilation (Tetko et al.; mined from patent text by program, amines drawn as free bases though some values may be those of a salt).

melting point [°C]	Compound
198 to 200	CCCCc1ncc(/C=C(\Cc2cccs2)C(=O)O)n1Cc1ccc([N+](=O)[O-])cc1
155 to 159	COc1ccc(Nc2nc(Cl)nc(NCCCO)n2)cc1
167 to 169	CCCCc1nc2c(N)nc3ccc(OCC(=O)N(C)Cc4ccccc4)cc3c2n1C
268 to 270	C=C=CC(=O)Nc1ccc2ncnc(Nc3cccc(Br)c3)c2c1
263 to 265	CCCn1c(=O)c2c(NC)n[nH]c2n(Cc2cccc(Cl)c2)c1=O
296 to 297	CCc1cn(C2CC(O)C(CNC(=O)Cc3c(Cl)cccc3Cl)O2)c(=O)[nH]c1=O (stereo not drawn)
170	Cc1nc2c(O)c(C(=O)[C@H](O)[C@@H](O)c3ccccc3)ccc2n1C
225 to 227	O=C(O)Cn1c(=O)n(Cc2ccc(Cl)c(Cl)c2)c(=O)c2ccccc21
217 to 218	O=C(NCCOc1ccc(CC(Oc2ccccc2)C(=O)O)cc1)c1ccc(-c2ccc(C(F)(F)F)cc2)cc1 (stereo not drawn)
109 to 111	CC(C)C[C@H](NC(=O)[C@H](Cc1c[nH]c2ccccc12)NC(=O)OC(C)(C)C)C(=O)O
104 to 108	C=CCNC(=O)Nc1nc2nc(NCCCN3CCN(C)CC3)ncc2cc1-c1c(Cl)cccc1Cl
71 to 72	CC(=O)C=Cc1cccc(OCCF)c1OCCF
170	CCCCc1nc(O)c(CC(=O)OCC)c(=O)n1Cc1ccc(C(=O)OC)cc1
88	CCCOCCOc1ccc(OCC(O)CNCCNC(=O)N2CCOCC2)cc1 (stereo not drawn)

Second part, the compound before the results:

Compound	melting point [°C]
O=[N+]([O-])c1ccc(N2CCN(CCO)CC2)cc1	98 to 99
CNC(=O)CC1c2cc(C#N)ccc2OC(C)(C)C1O (stereo not drawn)	141 to 142
CN(C)S(=O)(=O)c1ccccc1Cl	49 to 51
Fc1cc(Cl)c(OC(F)F)cc1-c1ncnc(C(F)F)c1Cl	56 to 57
COc1ccc2cc(-c3ccncn3)ccc2n1	164 to 165
COc1ccc2nc(CN(CCN(Cc3ccc4cc(OC)ccc4n3)Cc3ccc4cc(OC)ccc4n3)Cc3ccc4cc(OC)ccc4n3)ccc2c1	168 to 170
c1ccc2c(c1)CCCC2c1c[nH]cn1 (stereo not drawn)	105 to 110
Cc1ccc(-c2[nH]c(-c3c(Cl)cccc3Cl)nc2-c2ccncc2)cc1	295 to 296
CC(=O)NCc1ccc(C#Cc2ccc3c(c2)C(C)(C)CCC3(C)C)cc1	220 to 223
N=c1[nH]c2ccncc2c2nc(-c3ccco3)nn12	320 to 321
O=C1NCc2c1cc1ccc3c(c1c2-c1ccc(F)cc1)OCC3	302 to 305
Cn1c(S)nnc1COCC(=O)O	155 to 156
Cc1c(C(=O)N[C@@H](Cc2ccc(OCc3ccccc3)cc2)C(=O)O)oc2cc(-c3ccc(Cl)cc3)ccc12	143 to 144
CC(C)[Si](O[C@@H](CO)[C@H](CC1CCCCC1)NC(=O)OC(C)(C)C)(C(C)C)C(C)C	61 to 63
Nc1nc(N)c(-c2cc(Cl)cc(Cl)c2Cl)nc1CO	185 to 186
CCCc1c(C(=O)CO)c2ccc(C(N)=O)cc2n1Cc1ccccc1Cl	231 to 234
[N-]=[N+]=NC1CCc2ccccc2N(c2ccccc2)C1=O (stereo not drawn)	141 to 143
O=C(Nc1ccc(N2C[C@H]3CN(C(=O)OCc4ccccc4)C[C@H]3C2)c(F)c1)OCc1ccccc1	121 to 122
Cc1nc(C)c(Cl)c(NCc2ccc(Oc3ccc4ncc([N+](=O)[O-])n4n3)c(Cl)n2)n1	184 to 186
Oc1ccc2cc(-c3nc(-c4ccccc4)sc3Br)ccc2c1Br	198 to 200
CC(C)c1n[nH]c2c(O)nc(O)nc12	295 to 298
c1ccc2nc(COc3ccc(Cc4nnn[nH]4)cc3)ccc2c1	173 to 175
O=S1(=O)OCC(COC(C(F)(F)F)(C(F)(F)F)C(F)(F)F)(COC(C(F)(F)F)(C(F)(F)F)C(F)(F)F)CO1	90 to 91
CCOC(=O)c1cn(C2CC2)c2c(C#N)c(F)c(F)cc2c1=O	209 to 211
